Results from US12187717B2, “Compound and use thereof in treating autoimmune diseases” (PARENCHYMA BIOTECH INC., priority 2022, dated 2025).

Columns and labels:
[1] = molecular target: T1, CYP1A2 (Homo sapiens, UniProt P05177); experiment: CYP isoenzyme activity; format: in vitro ADME; conditions: 10 μM
T1 sequence (P05177 1-516): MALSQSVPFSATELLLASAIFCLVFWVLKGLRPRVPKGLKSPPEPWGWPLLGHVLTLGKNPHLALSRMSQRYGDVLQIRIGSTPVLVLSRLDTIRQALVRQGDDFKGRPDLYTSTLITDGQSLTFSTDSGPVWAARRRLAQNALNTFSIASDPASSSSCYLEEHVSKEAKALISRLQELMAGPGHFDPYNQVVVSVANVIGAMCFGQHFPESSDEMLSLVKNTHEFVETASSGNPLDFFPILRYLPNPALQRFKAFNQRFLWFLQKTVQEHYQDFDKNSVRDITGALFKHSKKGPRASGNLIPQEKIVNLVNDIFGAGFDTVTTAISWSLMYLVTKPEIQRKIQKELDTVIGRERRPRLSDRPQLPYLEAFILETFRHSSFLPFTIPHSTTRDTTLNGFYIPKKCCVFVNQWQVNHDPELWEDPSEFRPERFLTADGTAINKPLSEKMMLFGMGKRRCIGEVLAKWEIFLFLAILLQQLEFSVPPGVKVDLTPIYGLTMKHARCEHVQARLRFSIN

[2] = Pharmacokinetic parameters after oral or intravenous administration; format: in vivo; conditions: rats
Method: For rats, an oral administration group was fasted for 16 hours, and an intravenous administration group was subjected to intravenous administration with 10 mL/kg of solution prepared by completely dissolving Compound 6 in an ethanol-Cremophor EL mixture corresponding to 7.5% (v/v) of the administered dose, and then diluting in phosphate buffered saline so as to be the final ethanol:Cremophor EL:phosphate buffered saline (0.375:0.375:9.25, v/v/v), without fasting, at the dose concentration listed in Table 3. The oral administration group was supplied with food about 4 hours after administration. Blood collection was performed on the intravenous administration group after 0.083, 0.5, 1, 2, 4, 8, 24 hours from the administration and on the oral administration group after 0.5, 1, 2, 4, 8, 12, 24 hours from the administration, and plasma was recovered using centrifugation. In the recovered plasma, the drug concentration in the plasma was measured using UHPLC-MS/MS method.

[3] = molecular target: CYP2C9 (Homo sapiens, UniProt P11712); experiment: CYP isoenzyme activity; format: in vitro ADME; conditions: 10 μM
[4] = molecular target: CYP2D6 (Homo sapiens, UniProt P10635); conditions: 2 days, 10 μM
[5] = molecular target: CYP2C19 (Homo sapiens, UniProt P33261); experiment: CYP isoenzyme activity; format: in vitro ADME; conditions: 10 μM
[6] = molecular target: CYP3A4 (Homo sapiens, UniProt P08684); conditions: 2 days, 10 μM
Method: Live human hepatocyte cell lines (Corning, Cat No. 454551) were collected using a plating medium, seeded on a 24-well plate so that a cell density thereof was 0.4×10^6 cells/well, and cultured for 2 to 4 hours. After replacing the plating medium with a hepatocyte culture medium, the hepatocytes were cultured for 24 hours. After culturing for 24 hours, hepatocytes were treated with Compound 6 at 1, 5, 25 µM. The medium containing the compound was changed every 24 hours for 2 days. The cultured cells were recovered to prepare mRNA samples. mRNA was extracted from the recovered cells by a phenol-chloroform sedimentation method using TRIZOL reagent (Invitrogen, Cat No. 15596018). From the isolated RNA, cDNA was synthesized by reverse transcription, followed by measuring drug metabolizing enzymes CYP1A2, CYP2C9, CYP2C19, CYP2B6, and CYP3A4 through real-time PCR analysis using the Quant Studio™ 7 Flex Real-Time PCR System (Applied Biosystems, CA). Relative values of the enzyme expression levels were compared by the ΔΔct method using GAPDH as a control enzyme. Herein, one (1) fold was set using the control. Results are expressed as % of control compared to control sample.

[7] = pH-metric solubility and logP (SIRIUS T3); format: physicochemical; conditions: pH-metric results, SIRIUS T3
Method: After dissolving Compound 6 in ethanol, the solubility was measured and analyzed using a SIRIUS T3 machine.

[8] = rat, plasma, Intravenous (IV), 1 mg/kg
[9] = rat, plasma, Oral (PO), 10 mg/kg
[10] = rat, plasma, Oral (PO), 100 mg/kg
[11] = Oral (PO), 10 mg/kg (reference dose, dose ratio 1)
[12] = Oral (PO), 100 mg/kg relative to 10 mg/kg (dose ratio 10.0)

CYP2C19, sequence (P33261 whole entry): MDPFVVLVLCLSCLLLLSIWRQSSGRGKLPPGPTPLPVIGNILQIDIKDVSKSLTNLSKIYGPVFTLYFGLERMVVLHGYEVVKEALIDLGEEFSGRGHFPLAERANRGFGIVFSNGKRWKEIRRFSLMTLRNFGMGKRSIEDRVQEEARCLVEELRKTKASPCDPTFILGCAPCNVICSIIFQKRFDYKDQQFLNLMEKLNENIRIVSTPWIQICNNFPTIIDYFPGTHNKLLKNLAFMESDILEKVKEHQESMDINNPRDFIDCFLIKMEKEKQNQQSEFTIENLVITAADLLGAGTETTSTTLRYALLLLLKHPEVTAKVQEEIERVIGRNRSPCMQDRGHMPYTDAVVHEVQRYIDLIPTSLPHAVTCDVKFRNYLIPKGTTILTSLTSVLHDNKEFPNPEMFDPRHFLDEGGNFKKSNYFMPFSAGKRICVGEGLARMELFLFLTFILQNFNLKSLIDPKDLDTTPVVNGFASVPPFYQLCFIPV
CYP2C9, sequence (P11712 whole entry): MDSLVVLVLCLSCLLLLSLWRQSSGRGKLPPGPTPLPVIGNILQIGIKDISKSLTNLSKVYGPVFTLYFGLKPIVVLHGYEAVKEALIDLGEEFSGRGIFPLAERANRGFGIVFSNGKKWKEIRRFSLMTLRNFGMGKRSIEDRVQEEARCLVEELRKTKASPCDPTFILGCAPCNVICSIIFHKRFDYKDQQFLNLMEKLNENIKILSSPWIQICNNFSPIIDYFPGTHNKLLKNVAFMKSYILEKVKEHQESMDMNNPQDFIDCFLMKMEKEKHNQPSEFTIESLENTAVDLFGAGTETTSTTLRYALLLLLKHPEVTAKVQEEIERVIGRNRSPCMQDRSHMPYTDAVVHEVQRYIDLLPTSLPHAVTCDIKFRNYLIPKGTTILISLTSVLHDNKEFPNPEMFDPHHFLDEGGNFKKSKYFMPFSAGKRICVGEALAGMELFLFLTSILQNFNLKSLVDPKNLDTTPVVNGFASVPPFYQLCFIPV
CYP3A4, sequence (P08684 whole entry): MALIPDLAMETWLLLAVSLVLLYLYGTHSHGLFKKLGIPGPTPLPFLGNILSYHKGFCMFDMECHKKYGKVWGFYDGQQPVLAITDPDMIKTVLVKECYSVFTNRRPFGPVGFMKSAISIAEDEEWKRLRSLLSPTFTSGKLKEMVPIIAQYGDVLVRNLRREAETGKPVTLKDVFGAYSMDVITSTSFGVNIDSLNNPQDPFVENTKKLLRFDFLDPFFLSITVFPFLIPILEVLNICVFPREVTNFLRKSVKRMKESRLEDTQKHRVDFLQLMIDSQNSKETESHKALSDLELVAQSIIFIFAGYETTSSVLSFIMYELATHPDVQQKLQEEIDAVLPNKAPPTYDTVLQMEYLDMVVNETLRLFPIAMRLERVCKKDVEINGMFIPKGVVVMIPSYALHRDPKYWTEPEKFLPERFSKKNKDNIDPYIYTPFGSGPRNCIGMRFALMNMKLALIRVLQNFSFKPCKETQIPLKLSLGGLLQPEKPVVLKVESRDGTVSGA
CYP2D6, sequence (P10635 whole entry): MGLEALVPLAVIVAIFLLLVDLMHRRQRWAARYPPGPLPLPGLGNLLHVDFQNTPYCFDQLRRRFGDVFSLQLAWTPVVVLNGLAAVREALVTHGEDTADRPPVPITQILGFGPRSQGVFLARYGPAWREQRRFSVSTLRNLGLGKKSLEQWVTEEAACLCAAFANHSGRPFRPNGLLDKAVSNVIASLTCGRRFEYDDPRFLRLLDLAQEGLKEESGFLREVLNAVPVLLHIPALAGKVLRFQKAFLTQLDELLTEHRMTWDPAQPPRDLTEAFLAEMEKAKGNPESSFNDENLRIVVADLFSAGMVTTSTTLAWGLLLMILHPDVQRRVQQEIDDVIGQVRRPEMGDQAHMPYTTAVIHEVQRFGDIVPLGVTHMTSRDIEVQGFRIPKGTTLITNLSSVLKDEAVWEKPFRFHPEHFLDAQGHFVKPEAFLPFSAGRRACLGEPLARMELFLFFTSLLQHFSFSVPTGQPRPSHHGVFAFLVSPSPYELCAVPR

SMILES: O=C(Cc1c[nH]c2ccc(Cl)cc12)Nc1nc2ccccc2s1 [Comparative Example 1, N-(benzo[d]thiazol-2-yl)-2-(5-chloro-1H-indol-3-yl)acetamide, reference compound]
- CYP1A2 activity [1]: 64.6 % of Control Activity
- AUC(0-t) [2, 8]: 183 ng·h/mL
- C0 [2, 8]: 406 ng/mL
- clearance [2, 8]: 7.17 mL/min/kg
- half-life [2, 8]: 48 min
- Vd ([2]; rat, plasma, Intravenous (IV), 1 mg/kg, read-out: Vdss): 0.311 L/kg
- AUC(0-t) [2, 9]: 366 ng·h/mL
- Cmax [2, 9]: 126 ng/mL
- Tmax [2, 9]: 60 min
- half-life [2, 9]: 54 min
- bioavailability ([2]; rat, plasma, Oral (PO), 10 mg/kg, read-out: Bioavailability (F %)): 20%
- AUC(0-t) [2, 10]: 644 ng·h/mL
- Cmax [2, 10]: 152 ng/mL
- Tmax [2, 10]: 30 min
- half-life [2, 10]: 408 min
- AUClast Ratio [2, 11]: 1.0
- Cmax ratio [2, 11]: 1.0
- AUClast Ratio [2, 12]: 1.8
- Cmax ratio [2, 12]: 1.2
- CYP2C9 activity [3]: 91.9 % of Control Activity
- CYP2D6 activity [4]: 93.3 % of Control Activity
- CYP2C19 activity [5]: 24.4 % of Control Activity
- inhibition of the enzyme activity of CYP2C19 [5]: 24.4%
- CYP3A4 activity [6]: 107.6 % of Control Activity
- logP [7]: 2.8
- pH-metric solubility, Molarity [7]: 3.65 μM
- pH-metric solubility, Weight/ml [7]: 1.248 μg/ml
